ChEMBL document CHEMBL1201862, “PubChem BioAssay data set” (2004)
Active and inactive are the calls of the source.

Assays:
[1] = biological target: NACHT, LRR and PYD domains-containing protein 1 (Homo sapiens, UniProt Q9C000); assay: NALP1 inhibitors in yeast, dose response, luminescent (AID 488860); assay type: functional
[2] = test system: Saccharomyces cerevisiae; assay: NALP1 inhibitor project selectivity study, Caspase-1/ASC signal blockade IC50 in S. cerevisiae (AID 488863); assay type: functional, organism-based
[3] = biological target: T1, Calpain-2 catalytic subunit (Sus scrofa, UniProt P43367); assay: pig calpain II inhibitor potency, dose response, biochemical, fluorogenic peptide substrate (AID 1420); assay type: functional
T1 sequence (P43367 whole entry): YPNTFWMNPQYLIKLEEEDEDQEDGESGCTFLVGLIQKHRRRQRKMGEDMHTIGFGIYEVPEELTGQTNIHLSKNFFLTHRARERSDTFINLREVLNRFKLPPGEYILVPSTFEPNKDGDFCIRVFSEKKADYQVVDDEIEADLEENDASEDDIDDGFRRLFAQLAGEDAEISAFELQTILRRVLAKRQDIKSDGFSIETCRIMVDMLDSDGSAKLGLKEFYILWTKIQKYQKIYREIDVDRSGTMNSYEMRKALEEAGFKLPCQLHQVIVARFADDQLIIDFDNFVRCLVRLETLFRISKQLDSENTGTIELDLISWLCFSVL

[4] = Luminescence Cell-Based Dose Confirmation HTS to Identify Activators of 5'UTR Stem-Loop Driven Alpha-Synuclein mRNA Translation in H4 Neuroglioblastoma Cells. [Related pubchem assays: 1829 (Project Summary), 1814 (Primary HTS)]; assay type: functional
[5] = test system: H4; assay: Luminescence Cell-Based Dose Response HTS to Identify Activators of 5'UTR Stem-Loop Driven Prion Protein mRNA Translation in H4 Neuroglioblastoma Cells. [Related pubchem assays: 1829 (Project Summary), 1814 (Primary HTS)]; assay type: functional; conditions: Homo sapiens
[6] = Luminescence Cell-Based Dose Response HTS to Identify Activators of Luciferase Translation or Activity in H4 […] Cells. [Related pubchem assays: 1829 (Project Summary), 1814 (Primary HTS)]; assay type: functional
[7] = biological target: NACHT, LRR and PYD domains-containing protein 3 (Homo sapiens, UniProt Q96P20); assay: NALP3 inhibitors in yeast, dose response, luminescent (AID 488799); assay type: functional
[8] = biological target: CAAX prenyl protease 2 (Saccharomyces cerevisiae S288c, UniProt Q03530); assay type: biochemical
[9] = biological target: Trypsin (Sus scrofa, UniProt P00761); assay: porcine trypsin inhibitors, dose response, selectivity assay for Rce1 protease inhibitor project, biochemical, quenched peptide fluorescence, cherry-pick (AID 488789)
[10] = Cytotoxicity screening for potential Inhibitors of Bacterial Capsule Biogenesis. [Related pubchem assays (depositor defined):AID488970]; assay type: functional
[11] = biological target: Phospholipase A2 (Homo sapiens, UniProt P04054); assay type: functional;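 further: confirmatory dose-response counterscreen on phospholipase A2, testing hits that came from an ultra-high-throughput screen for ATG4B inhibitors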
[12] = biological target: T2, Nucleotide-binding oligomerization domain-containing protein 2 (Homo sapiens, UniProt Q9HC29); assay: NOD2 signaling inhibitors, cell-based, luminescence, uHTS, HEK293 (AID 1566); assay type: functional
[13] = biological target: Nucleotide-binding oligomerization domain-containing protein 1 (Homo sapiens, UniProt Q9Y239); assay: NOD1 signaling inhibitors, SAR follow-up, revised (AID 2333); assay type: functional
[14] = biological target: Tumor necrosis factor (Homo sapiens, UniProt P01375); assay: TNFa-triggered NF-kB activation inhibitors, SAR follow-up, cell-based, revised (AID 2337); assay type: functional
[15] = biological target: T3, Cysteine protease ATG4B (Homo sapiens, UniProt Q9Y4P1); assay type: functional;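 further: Fluorescence-based dose-response confirmation assay measuring inhibition of ATG4B activity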
T3 sequence (Q9Y4P1 whole entry): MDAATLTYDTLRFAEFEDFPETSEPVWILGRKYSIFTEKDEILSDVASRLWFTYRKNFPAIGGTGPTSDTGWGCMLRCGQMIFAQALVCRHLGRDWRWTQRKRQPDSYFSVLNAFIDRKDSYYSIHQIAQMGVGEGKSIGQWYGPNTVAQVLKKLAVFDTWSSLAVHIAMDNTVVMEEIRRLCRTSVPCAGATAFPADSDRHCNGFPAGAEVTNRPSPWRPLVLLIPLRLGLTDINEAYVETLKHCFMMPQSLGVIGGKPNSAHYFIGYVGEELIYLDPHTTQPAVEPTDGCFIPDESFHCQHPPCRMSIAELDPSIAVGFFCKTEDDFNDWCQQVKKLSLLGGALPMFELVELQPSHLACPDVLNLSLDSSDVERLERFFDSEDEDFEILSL

[16] = biological target: T2, Nucleotide-binding oligomerization domain-containing protein 2; assay: PubChem AID 2334; assay type: functional
[17] = biological target: T4, Short transient receptor potential channel 4 (Mus musculus, UniProt Q9QUQ5); assay: mouse TRPC4 channel inhibitors, dose response, cell-based, HEK293 TRPC4/mu-opioid, Fluo-4 calcium (AID 434942); assay type: functional;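 further: potency of inhibitors blocking the TRPC4 calcium response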
T4 sequence (Q9QUQ5 whole entry): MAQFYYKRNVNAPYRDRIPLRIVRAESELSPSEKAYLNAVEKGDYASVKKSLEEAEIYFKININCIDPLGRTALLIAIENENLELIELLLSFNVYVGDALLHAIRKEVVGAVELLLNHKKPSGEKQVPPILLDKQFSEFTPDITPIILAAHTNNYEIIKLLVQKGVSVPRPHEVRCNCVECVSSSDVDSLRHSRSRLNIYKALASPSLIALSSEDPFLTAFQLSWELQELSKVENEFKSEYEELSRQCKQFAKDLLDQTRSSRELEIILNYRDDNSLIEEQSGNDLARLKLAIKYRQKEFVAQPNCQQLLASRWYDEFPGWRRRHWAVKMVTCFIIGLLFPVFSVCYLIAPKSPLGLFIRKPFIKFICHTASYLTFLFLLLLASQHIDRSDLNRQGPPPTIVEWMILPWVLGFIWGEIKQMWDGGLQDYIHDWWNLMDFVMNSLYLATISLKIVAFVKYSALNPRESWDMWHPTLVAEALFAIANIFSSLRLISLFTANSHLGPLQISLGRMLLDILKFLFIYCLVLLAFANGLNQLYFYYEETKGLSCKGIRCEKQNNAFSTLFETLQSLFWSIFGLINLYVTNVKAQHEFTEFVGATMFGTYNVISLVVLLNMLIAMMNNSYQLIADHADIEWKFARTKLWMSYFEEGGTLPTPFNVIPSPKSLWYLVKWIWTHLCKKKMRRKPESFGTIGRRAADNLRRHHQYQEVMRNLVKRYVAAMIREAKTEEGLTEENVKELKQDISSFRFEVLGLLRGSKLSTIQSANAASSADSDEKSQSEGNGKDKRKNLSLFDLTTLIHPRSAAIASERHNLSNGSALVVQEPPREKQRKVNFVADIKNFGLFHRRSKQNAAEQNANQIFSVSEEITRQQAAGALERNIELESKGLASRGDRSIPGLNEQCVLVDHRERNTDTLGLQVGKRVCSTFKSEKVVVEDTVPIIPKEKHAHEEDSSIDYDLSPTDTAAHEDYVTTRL

[18] = biological target: T5, G-protein coupled receptor 55 (Homo sapiens, UniProt Q9Y2T6); assay: GPR55 antagonists, SAR follow-up, counter-screen for GPR35 antagonist project, imaging, image-based (AID 2397); assay type: functional
[19] = cytotoxicity toward NIH3T3 fibroblasts, dose response, counter-screen, cell-based, ATP luminescence, mouse fibroblasts (AID 2010); assay type: functional;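 further: cells exposed to compound for about 90 hours before reading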
[20] = biological target: T6, G-protein coupled receptor 35 (Homo sapiens, UniProt Q9HC97); assay: GPR35 antagonists blocking zaprinast-driven arrestin recruitment, primary screen, imaging, U2OS, beta-arrestin-GFP, zaprinast agonist (AID 2058); assay type: functional;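 further: antagonist potency meaning inhibition of agonist-induced arrestin redistribution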
[21] = inhibitors of intracellular T. cruzi replication, confirmation, NIH3T3 host cells, beta-gal luminescence (AID 2044); assay type: functional, cell-based;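 further: intracellular parasites grown in NIH/3T3 mouse fibroblasts as host cells; luminescent beta-galactosidase reporter signal from transgenic T. cruzi replicating inside host cells; inhibitors lower the luminescence signal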
[22] = biological target: T6, G-protein coupled receptor 35; assay: SAR Analysis for the identification of Selective Antagonists of ERK1/2 Activity in GPR35-Overexpressing U2OS Cells. [Related pubchem assays: 2079, 2058 ]; assay type: functional, cell-based
[23] = biological target: Bcl-2-like protein 10 (Homo sapiens, UniProt Q9HD36); assay: displacers of TR3 peptide from Bcl-B, primary screen, selectivity assay for Bfl-1 inhibitor project, biochemical, fluorescence polarization, FITC-TR3 peptide (AID 748);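 further: fluorescence polarization from a fluorescein-labelled TR3 peptide binding purified Bcl-B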
[24] = biological target: DNA dC->dU-editing enzyme APOBEC-3A (Homo sapiens, UniProt P31941); assay: APOBEC3A DNA deaminase inhibitors, dose response, biochemical (AID 504722); assay type: functional
[25] = biological target: DNA dC->dU-editing enzyme APOBEC-3G (Homo sapiens, UniProt Q9HC16); assay: Dose Response confirmation of small molecule APOBEC3G DNA Deaminase Inhibitors via a fluorescence-based single-stranded DNA deaminase assay. [Related pubchem assays (depositor defined):AID493012, AID493028]; assay type: functional
[26] = biological target: Cystic fibrosis transmembrane conductance regulator/Golgi-associated PDZ and coiled-coil motif-containing protein (Homo sapiens, UniProt P13569+Q9HD26); assay: CAL PDZ peptide-binding inhibitors, dose response, biochemical, fluorescence polarization, Cerulean-tagged CAL PDZ, cherry-picks (AID 504773)
[27] = test system: HT-1080; assay: cytotoxicity in HT1080 fibrosarcoma cells, cell-based, fluorescence readout (AID 620); assay type: functional; conditions: Homo sapiens
[28] = biological target: Neurotensin receptor type 1 (Homo sapiens, UniProt P30989); assay type: functional;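 further: Image-based confirmatory dose-response assay measuring agonist activity at NTR1; NTR1-expressing U2OS osteosarcoma cells imaged for beta-arrestin GFP spot formation; agonist potency where compounds increase beta-arrestin recruitment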
[29] = biological target: Luciferin 4-monooxygenase (Photinus pyralis, UniProt P08659); assay: Counter Screen for Luciferase-based Assay Positives. [Related pubchem assays: 620, 618, 411 ]
[30] = cytotoxicity in HPDE-C7 cells, cell-based, fluorescence, HTS (AID 430); assay type: functional; conditions: Homo sapiens
[31] = cytotoxicity in KRAS-transformed pancreatic duct cells, primary screen, cell-based, fluorescence, HTS (AID 431); assay type: functional; conditions: Homo sapiens;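 further: cell line used: HPDE-C7K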
[32] = biological target: Paired box protein Pax-8 (Homo sapiens, UniProt Q06710); assay: inhibitors of PAX8-driven TPO luciferase reporter, dose response, RMG-I cells, cherry-pick (AID 687027); assay type: functional, cell-based;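 further: luciferase reporter driven by Pax8 target thyroperoxidase promoter measured by SteadyGlo luminescence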
[33] = biological target: Cytochrome P450 2C9 (Homo sapiens, UniProt P11712)
[34] = biological target: Cytochrome P450 2C19 (Homo sapiens, UniProt P33261); assay: Cytochrome panel assay with activity outcomes. Panel member name: p450-cyp2c19 Compounds with AC50 equal or less than 10 uM are considered active; assay type: functional; conditions: read-out: AC50
[35] = biological target: Cytochrome P450 2D6 (Homo sapiens, UniProt P10635);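 further: CYP2D6 member of a cytochrome P450 panel assay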
[36] = biological target: Intestinal-type alkaline phosphatase (Homo sapiens, UniProt P09923); assay: Dose Response confirmation of uHTS hits from a small molecule inhibitors of human intestinal alkaline phosphatase via a luminescent assay. [Related pubchem assays (depositor defined):AID2544, AID2574]; assay type: functional
[37] = cytotoxicity in NIH/3T3 mouse fibroblasts, dose response, cytotoxicity control, cell-based, mouse embryonic fibroblasts, dry powder, set 2 (AID 493247); assay type: functional; conditions: Fibroblast
[38] = biological target: T5, G-protein coupled receptor 55; assay: GPR55 agonists via beta-arrestin recruitment, primary screen, imaging, U2OS cells, beta-arrestin-GFP redistribution (AID 1961); assay type: functional
[39] = biological target: Voltage-dependent T-type calcium channel subunit alpha-1H (Homo sapiens, UniProt O95180); assay: Cav3.2 T-type channel inhibitors, cell-based, synthetic library set 1, calcium flux (AID 493022); assay type: functional

T6 sequence (Q9HC97 whole entry): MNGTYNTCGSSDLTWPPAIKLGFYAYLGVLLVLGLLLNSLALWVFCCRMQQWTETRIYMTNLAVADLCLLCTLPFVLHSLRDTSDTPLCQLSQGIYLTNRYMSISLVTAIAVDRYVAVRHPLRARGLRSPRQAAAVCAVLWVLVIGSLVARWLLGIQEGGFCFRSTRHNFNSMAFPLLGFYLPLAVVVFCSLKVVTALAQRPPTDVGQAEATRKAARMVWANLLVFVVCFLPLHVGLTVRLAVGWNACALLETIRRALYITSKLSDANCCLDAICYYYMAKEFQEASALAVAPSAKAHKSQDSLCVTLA
T5 sequence (Q9Y2T6 whole entry): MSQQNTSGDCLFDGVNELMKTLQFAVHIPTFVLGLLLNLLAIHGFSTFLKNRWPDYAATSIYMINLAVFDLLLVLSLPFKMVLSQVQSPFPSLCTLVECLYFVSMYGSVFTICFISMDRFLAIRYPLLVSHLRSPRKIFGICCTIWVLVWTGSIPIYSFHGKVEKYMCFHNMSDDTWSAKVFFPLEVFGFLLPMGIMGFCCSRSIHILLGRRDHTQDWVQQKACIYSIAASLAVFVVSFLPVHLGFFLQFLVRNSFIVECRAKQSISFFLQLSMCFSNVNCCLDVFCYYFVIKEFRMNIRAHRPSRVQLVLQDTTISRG
T2 sequence (Q9HC29 whole entry, the tested form may be a part): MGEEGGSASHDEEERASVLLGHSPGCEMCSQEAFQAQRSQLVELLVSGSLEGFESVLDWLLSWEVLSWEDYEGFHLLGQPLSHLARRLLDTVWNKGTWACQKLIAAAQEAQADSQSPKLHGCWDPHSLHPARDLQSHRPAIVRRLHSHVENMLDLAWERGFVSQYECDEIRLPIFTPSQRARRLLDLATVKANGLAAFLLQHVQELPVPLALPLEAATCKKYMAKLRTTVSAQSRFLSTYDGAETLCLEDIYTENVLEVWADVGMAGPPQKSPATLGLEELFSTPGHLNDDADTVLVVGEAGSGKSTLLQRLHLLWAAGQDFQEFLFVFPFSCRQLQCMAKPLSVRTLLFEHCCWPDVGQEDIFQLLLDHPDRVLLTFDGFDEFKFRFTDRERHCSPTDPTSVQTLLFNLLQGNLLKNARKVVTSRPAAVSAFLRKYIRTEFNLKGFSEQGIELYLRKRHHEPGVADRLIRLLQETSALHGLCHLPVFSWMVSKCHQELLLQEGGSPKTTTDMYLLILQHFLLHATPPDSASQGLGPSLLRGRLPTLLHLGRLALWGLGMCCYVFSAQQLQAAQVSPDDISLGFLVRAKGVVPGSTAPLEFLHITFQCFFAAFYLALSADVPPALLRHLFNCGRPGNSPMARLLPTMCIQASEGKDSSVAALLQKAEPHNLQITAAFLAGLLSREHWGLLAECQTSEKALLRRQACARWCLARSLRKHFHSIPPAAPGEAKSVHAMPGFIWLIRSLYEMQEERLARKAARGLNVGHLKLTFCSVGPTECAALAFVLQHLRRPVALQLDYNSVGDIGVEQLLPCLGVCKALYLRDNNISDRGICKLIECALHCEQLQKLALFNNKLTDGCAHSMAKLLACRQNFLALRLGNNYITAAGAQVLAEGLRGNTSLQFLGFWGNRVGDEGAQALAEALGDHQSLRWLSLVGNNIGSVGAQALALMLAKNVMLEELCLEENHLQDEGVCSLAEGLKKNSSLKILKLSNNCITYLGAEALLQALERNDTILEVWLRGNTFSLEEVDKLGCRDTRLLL
Sequence of Trypsin (P00761 whole entry): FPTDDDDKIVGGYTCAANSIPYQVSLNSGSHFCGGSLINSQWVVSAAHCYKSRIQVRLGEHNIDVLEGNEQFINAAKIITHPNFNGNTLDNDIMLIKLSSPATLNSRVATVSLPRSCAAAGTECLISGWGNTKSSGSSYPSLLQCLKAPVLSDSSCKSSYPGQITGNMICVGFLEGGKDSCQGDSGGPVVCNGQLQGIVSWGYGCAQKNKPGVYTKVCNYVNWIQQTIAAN
Sequence of DNA dC->dU-editing enzyme APOBEC-3A (P31941 whole entry): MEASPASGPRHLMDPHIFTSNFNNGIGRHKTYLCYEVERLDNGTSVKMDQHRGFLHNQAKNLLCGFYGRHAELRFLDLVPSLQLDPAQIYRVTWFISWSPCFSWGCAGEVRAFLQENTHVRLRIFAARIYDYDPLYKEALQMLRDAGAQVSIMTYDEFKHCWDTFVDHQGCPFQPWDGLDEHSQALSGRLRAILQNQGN
Sequence of Luciferin 4-monooxygenase (P08659 whole entry): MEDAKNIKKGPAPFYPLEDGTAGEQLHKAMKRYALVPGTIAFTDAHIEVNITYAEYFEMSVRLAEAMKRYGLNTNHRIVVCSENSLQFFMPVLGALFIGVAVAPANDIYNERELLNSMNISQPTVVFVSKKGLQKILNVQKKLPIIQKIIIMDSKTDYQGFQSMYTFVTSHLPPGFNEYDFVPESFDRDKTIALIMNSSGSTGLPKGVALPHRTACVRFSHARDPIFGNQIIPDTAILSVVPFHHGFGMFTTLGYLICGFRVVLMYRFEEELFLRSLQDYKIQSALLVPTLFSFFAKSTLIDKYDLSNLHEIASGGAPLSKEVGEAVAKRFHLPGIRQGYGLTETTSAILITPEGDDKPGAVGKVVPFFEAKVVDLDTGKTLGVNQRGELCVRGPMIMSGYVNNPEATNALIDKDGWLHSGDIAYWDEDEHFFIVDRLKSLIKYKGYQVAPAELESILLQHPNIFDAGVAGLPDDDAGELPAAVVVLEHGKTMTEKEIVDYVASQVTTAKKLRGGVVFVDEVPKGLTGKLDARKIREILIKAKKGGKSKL
Sequence of Nucleotide-binding oligomerization domain-containing protein 1 (Q9Y239 whole entry, the tested form may be a part): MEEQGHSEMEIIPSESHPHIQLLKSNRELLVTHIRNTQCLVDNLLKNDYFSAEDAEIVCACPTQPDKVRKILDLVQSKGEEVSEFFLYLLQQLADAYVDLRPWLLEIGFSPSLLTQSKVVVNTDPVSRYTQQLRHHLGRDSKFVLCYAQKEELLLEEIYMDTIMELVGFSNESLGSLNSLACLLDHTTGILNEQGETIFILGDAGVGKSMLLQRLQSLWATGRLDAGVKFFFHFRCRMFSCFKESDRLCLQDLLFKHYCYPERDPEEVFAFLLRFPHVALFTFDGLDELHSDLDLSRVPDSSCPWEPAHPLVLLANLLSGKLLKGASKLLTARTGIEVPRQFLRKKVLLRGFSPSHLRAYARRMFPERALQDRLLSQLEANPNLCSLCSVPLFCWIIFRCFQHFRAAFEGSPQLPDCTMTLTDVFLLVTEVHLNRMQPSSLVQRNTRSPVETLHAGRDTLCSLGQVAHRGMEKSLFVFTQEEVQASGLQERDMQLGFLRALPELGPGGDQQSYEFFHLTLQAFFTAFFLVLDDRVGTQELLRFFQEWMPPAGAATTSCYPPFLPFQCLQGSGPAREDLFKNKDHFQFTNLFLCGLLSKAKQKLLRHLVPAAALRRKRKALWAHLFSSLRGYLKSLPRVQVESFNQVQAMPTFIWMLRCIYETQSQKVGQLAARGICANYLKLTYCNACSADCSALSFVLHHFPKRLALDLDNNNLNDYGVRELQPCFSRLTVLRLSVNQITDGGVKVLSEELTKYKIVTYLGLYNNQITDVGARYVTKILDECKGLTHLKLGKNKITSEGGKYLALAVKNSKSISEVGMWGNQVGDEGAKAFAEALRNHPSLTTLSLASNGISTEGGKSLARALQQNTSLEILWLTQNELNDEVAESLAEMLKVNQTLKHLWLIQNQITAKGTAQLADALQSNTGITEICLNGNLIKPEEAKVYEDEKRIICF
Sequence of DNA dC->dU-editing enzyme APOBEC-3G (Q9HC16 whole entry): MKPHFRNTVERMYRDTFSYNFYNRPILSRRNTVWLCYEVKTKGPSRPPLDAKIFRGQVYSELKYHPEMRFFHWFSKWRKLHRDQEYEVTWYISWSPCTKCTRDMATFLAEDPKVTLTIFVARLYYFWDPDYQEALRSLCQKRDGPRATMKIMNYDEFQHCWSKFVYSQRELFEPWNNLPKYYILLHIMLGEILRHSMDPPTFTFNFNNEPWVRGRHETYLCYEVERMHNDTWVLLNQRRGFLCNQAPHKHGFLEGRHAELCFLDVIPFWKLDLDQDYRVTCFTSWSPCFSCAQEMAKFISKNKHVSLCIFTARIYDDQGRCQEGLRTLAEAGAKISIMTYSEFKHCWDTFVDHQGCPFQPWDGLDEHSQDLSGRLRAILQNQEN
Sequence of Intestinal-type alkaline phosphatase (P09923 whole entry): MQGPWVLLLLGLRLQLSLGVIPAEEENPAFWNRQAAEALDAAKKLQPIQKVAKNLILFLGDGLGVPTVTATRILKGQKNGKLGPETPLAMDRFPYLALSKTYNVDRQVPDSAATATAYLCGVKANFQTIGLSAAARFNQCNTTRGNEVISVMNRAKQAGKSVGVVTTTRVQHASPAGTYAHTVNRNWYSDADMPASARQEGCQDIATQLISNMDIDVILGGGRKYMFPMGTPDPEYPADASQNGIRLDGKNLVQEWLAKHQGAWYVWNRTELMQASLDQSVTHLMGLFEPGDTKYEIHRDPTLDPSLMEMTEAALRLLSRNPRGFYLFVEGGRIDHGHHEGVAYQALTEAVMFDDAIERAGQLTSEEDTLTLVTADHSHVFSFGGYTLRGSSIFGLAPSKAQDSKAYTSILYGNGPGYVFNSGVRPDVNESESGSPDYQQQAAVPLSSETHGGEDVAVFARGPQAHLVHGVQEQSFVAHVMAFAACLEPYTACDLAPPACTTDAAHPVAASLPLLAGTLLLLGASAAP
Sequence of Neurotensin receptor type 1 (P30989 whole entry): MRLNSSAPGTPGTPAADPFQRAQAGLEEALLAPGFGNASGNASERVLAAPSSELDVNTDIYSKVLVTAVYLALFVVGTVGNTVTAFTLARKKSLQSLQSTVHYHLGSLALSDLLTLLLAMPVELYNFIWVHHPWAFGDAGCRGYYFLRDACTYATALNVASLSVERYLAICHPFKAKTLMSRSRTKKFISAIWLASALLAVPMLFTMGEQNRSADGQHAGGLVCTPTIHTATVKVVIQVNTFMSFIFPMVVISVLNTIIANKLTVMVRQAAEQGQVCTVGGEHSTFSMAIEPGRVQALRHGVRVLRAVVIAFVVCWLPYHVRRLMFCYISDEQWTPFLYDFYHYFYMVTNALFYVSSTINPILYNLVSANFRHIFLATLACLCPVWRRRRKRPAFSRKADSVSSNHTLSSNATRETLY

Structure (SMILES): O=S(=O)(Nc1ccc(-n2cccc2)cc1)c1ccc(Cl)cc1Cl
- IC50 [1]: 18.3 µM (active)
- IC50 [2]: 56.8 µM (active)
- IC50 [3]: 9.85 µM (not active)

Structure (SMILES): COc1ccc(NC(=O)C#Cc2ccccc2)cc1
- EC50 [4]: 0.192 µM (active)
- EC50 [5]: 22.1 µM (active)
- EC50 [6]: 32.6 µM (active)
- IC50 [7]: 8.01 µM (active)

Structure (SMILES): COc1ccccc1-c1cc(C(F)(F)F)n2ncc(S(=O)(=O)c3ccccc3)c2n1
- AC50 [8]: 75.9 µM (active)
- AC50 [9]: 13.1 µM (active)

Structure (SMILES): C=CCOc1ccc(C2c3c(oc4ccccc4c3=O)C(=O)N2CCCN2CCOCC2)cc1 (centres undefined)
- CC50 [10]: > 100 µM (active)

Structure (SMILES): Cc1ccc(CSc2nc(-c3ccccc3)c(C#N)c(=O)[nH]2)cc1
- IC50 [11]: 21.2 µM (inactive)
- EC50 [12]: 13.2 µM (active)
- IC50 [13]: 5.5 µM (active)
- IC50 [14]: 8.2 µM (active)
- IC50 [15]: 7.62 µM (active)
- IC50 [16]: 6.9 µM (active)
- EC50 [17]: 5.31 µM (active)

Structure (SMILES): Cc1ccc(Cn2ncc3c(N4CCN(c5ccccc5C)CC4)ncnc32)cc1
- IC50 [18]: > 32 µM (inactive)
- EC50 [19]: > 60 µM (not active)
- IC50 [20]: 0.761 µM (active)
- EC50 [21]: 1.6 µM (active)
- IC50 [22]: 17.7 µM (not active)

Structure (SMILES): Cc1cc2cc(CN(Cc3ccco3)S(=O)(=O)c3c(C)ccc4nsnc34)c(=O)[nH]c2cc1C
- IC50 [23]: > 100 µM (inactive)

Structure (SMILES): Sc1nnc(-c2ccc(Cl)cc2)n1CC1CCCO1 (centres undefined)
- IC50 [24]: > 100 µM (inactive)
- IC50 [25]: 6.14 µM (active)

Structure (SMILES): c1ccc(C(c2ccccc2)c2cccnc2)cc1
- AC50 [26]: 45.6 µM (active)

Structure (SMILES): Cc1ccc(-c2csc3ncnc(Sc4nnc(CN5CCCCCC5=O)o4)c23)cc1
- EC50 [27]: 20.1 µM (active)
- EC50 [28]: 8.73 µM (active)
- EC50 [29]: 74 µM (active)
- EC50 [30]: 1.78 µM (active)
- EC50 [31]: 2.1 µM (active)
- AC50 [32]: 5 µM (active)

Structure (SMILES): O=c1c2c(-c3cccs3)csc2ncn1-c1ccc(Br)cc1
- AC50 [33]: 3.98 µM (inconclusive)
- AC50 [34]: 2.24 µM (inconclusive)
- AC50 [35]: 3.55 µM (inconclusive)
- IC50 [36]: > 100 µM (inactive)

Structure (SMILES): COc1cc2c(cc1OC)CN(C(=O)C1CCCN(Cc3ccccc3)C1)CC2 (centres undefined)
- AC50 [37]: 52.7 µM (active)

Structure (SMILES): CC(C)C[C@@H](COc1ccccc1)N1CCN(CCc2ccccc2)CCC1=O
- EC50 [38]: 2.69 µM (active)

Structure (SMILES): O=C(COc1ccc(F)cc1)Nc1nnc(-c2ccc(F)cc2)o1
- EC50 [39]: 10 µM (active)
